Here are results for eight compounds from publication PMC8148468, “Shikimic acid protects skin cells from UV-induced senescence through activation of the NAD+-dependent deacetylase SIRT1” (Aging (Albany NY), 2021).

In the first data set the test system is primary human dermal fibroblasts (HDFs).
Test: not given
Conditions: not given
An excerpt:
In our efforts to identify novel factors that could prevent skin cell senescence, we developed a screening process to identify new modulators of the protective role of sirtuins in UV-induced senescence. For this purpose, we established a culture of primary human dermal fibroblasts (HDFs). […] Our first step in the screening was to establish the optimal concentrations of these compounds in the case of HDFs. […] Once established, we took these parameters into account to decide the specific working range of concentrations for each compound.
Human dermal fibroblasts (HDFs) (Promocell, Germany) from 40-year old Caucasian women were used as the in vitro model for compound viability and efficacy screening. Cells were cultured in Dulbecco's modified eagle medium (DMEM) low glucose (Biowest, France) supplemented with 10% fetal bovine serum (FBS) (Capricorn Scientific, Germany) and 10 U/mL penicillin/streptomycin (Biowest, France) in a humidified incubator at 37° C and 5% CO2. For cell passage, cells at 80% confluence were trypsinized and plated at 60% confluence. Cells between passage 13 and 18 were used for the assays. For the SIRT1 in vitro assay, HEK293 cells (ATCC, USA), used to transfect and immunoprecipitate SIRT1 protein, were grown in DMEM high glucose (Thermo Fisher Scientific, USA), supplemented with 10% FBS in a humidified incubator at 37° C and 5% CO2. The following experiments were all performed in triplicate.
(§1) The protocol for senescence induction using UVB irradiation is described in the Supplementary Methods. SA-β-Gal staining, WST-1, sulforhodamine B (SRB) and trypan blue assays were performed as previously described. For the siRNA experiments, the protocol for senescence induction using UVB irradiation was the same as in the Supplementary Methods. Specific siRNA (Horizon discovery, UK) for SIRT1, SIRT2, SIRT6, BiP or scramble siRNA were incubated for 6 hours before each irradiation step.
`O=C(O)CCCC[C@@H]1CCSS1` (racemic) [Lipoic acid]: the “Max. non-cyt. doses” value was found to be 1 mM.
On to `COc1cc(/C=C/C(=O)O)ccc1O` [Ferulic acid], for which the “Max. non-cyt. doses” value is reported as 7.5 mM.

Still in this data set, the particulars now being: HDFs, WST-1 cell viability test.
For the compound `O=Cc1ccc(O)c(O)c1` [3,4-dihydroxybenzaldehyde], the “LD50” value is recorded as 1.08 mM.
Consider `C=C1CC[C@@H]2[C@](C)(CO)[C@H](O)CC[C@@]2(C)[C@@H]1C/C=C1/C(=O)OC[C@H]1O` [Andrographolide], for which the “LD50” value is reported as 0.124 mM.
Take `NCCC(=O)N[C@@H](Cc1cnc[nH]1)C(=O)O` [Carnosine]: the “LD50” value turned out to be 85.46 mM.
Same read-out and setting: the same measure for `COc1cc(/C=C/C(=O)O)ccc1O` [Ferulic acid]: 16.5 mM; for `C=C[C@@H]1C2=CCOC(=O)C2=CO[C@H]1O[C@@H]1O[C@H](CO)[C@@H](O)[C@H](O)[C@H]1O` [Gentiopicrin]: 13.825 mM; for `COc1cc(-c2coc3cc4c(c(OC)c3c2=O)OCO4)cc(OC)c1OC` [Irisflorentin]: 0.049 mM.
Turning to `C=C[C@](C)(O)CC[C@@H]1[C@@]2(C)CCCC(C)(C)[C@@H]2CC[C@@]1(C)O` [Sclareol], the “LD50” value worked out at 0.04 mM.

Staying with this data set, now noted: HDFs, WST-1 cell viability test, maximum non-cytotoxic dose.
In the case of `O=Cc1ccc(O)c(O)c1` [3,4-dihydroxybenzaldehyde], the “Max. non-cyt. doses” value is recorded as 0.1 mM.
On the same count and under the same terms, the figure for `C=C1CC[C@@H]2[C@](C)(CO)[C@H](O)CC[C@@]2(C)[C@@H]1C/C=C1/C(=O)OC[C@H]1O` [Andrographolide] is 0.01 mM; for `NCCC(=O)N[C@@H](Cc1cnc[nH]1)C(=O)O` [Carnosine] it is 25 mM; for `COc1cc(-c2coc3cc4c(c(OC)c3c2=O)OCO4)cc(OC)c1OC` [Irisflorentin] it is 0.01 mM.
Same read-out and setting: the figure for `C=C[C@](C)(O)CC[C@@H]1[C@@]2(C)CCCC(C)(C)[C@@H]2CC[C@@]1(C)O` [Sclareol] is 0.02 mM.

The data set is the same for the next values; noted with them: female, human.
Consider `C=C[C@@H]1C2=CCOC(=O)C2=CO[C@H]1O[C@@H]1O[C@H](CO)[C@@H](O)[C@H](O)[C@H]1O` [Gentiopicrin], for which the “Max. non-cyt. doses” value turned out to be 2.5 mM.

A further data set relates to HAS2 (hyaluronic acid synthase 2). Description: UVB-induced senescence assay: HAS2 gene expression (qPCR). Note: key: ↑: increase; ↓: decrease; hyphens that indicate no effect (-). The format is cell-based, human. The note with it: HDF, 2 cycles of UVB, compound day 1 to 7, Figure 2B. On the procedure: (§2) In the second approach, we established a method for inducing senescence in these cells with 2 cycles of UVB irradiation 72h apart (Figure 2A). The use of UVA to induce senescence was discarded due to its considerably longer time requirement, being unsuitable to screen 30 compounds within a reasonable period. Cells were treated with these compounds throughout the duration of the assay and cellular senescence was monitored with two markers: accumulation of SA-β-galactosidase (SA-β-Gal) activity, and the decrease in expression of HAS2 (hyaluronic acid synthase 2), a previously reported marker of skin senescence.
(§3) Figure 2 (A) Schematic representation of the protocol for senescence induction using UVB irradiation. Cells were treated -/+ the compounds from day 1 to 7 after seeding, irradiated with UVB on days 2 and 5 and harvested for analysis on day 7. […] (C) Phase-contrast (left column) and bright field (right column) microscope images of SA-β-Gal staining showing non-irradiated cells, UVB-irradiated cells non-treated and treated with Gallic acid or Shikimic acid at the indicated concentrations. (D) Percentage of SA-β-Gal positive cells and (E) Relative HAS2 mRNA levels in non-irradiated cells, UVB-irradiated cells and UVB-irradiated cells treated with Gallic acid or Shikimic acid at the indicated concentrations. Student T-test, *p<0.05, **p<0.01, ***p<0.001.
RNA was extracted from cell pellets using the Total RNA Purification Kit (Norgen, Canada), according to the manufacturer’s protocol. Extracted RNA was quantified using a NanoDrop® ND-1000 UV-Vis Spectrophotometer (Thermo Fisher Scientific, USA) and 300 ng of RNA were retrotranscribed to cDNA using the PrimeScriptTM RT reagent kit (Takara Bio Inc., Japan). cDNA was diluted 1/10 in ultrapure water and qPCR mix was prepared by adding cDNA (12 ng), SYBR green supermix (Bio Rad, USA), forward and reverse primers (0.2μM). The primers and their respective sequences are listed in Supplementary Table 1. qPCR protocol included one step at 95° C for 30 s, 40 cycles at 95° C for 10s, and 60° C for 1min. The results were analyzed with Bio-Rad CFX Manager software. BACT was used as a housekeeping gene to normalize gene expression.
(§4) Senescence induction by UVB irradiation For the non-irradiation control conditions, HDF were […]
(§5) After 24h, culture medium was removed and well plates. After 24h, culture medium was removed replaced by fresh cell culture medium containing the and replaced with fresh cell culture medium containing compounds at different concentrations. After 24h, the compounds at different concentrations. […]
(§6) cell culture medium was removed, and cells were cells/plate in fresh cell culture medium containing the irradiated at 25 mJ/cm2 of UVB light (312 nm) in a Bio- compound in 6-well plates. After 3 days, cells were […]
(§7) amount of PBS. PBS was then removed and fresh cell fresh cell culture medium containing the compound in culture medium with the compound was added to each 6-well plates. After 2 days, cells were processed well. After 3 days, cells were irradiated again under the according to the qPCR, β-Gal staining, apoptosis, cell same conditions. After 2 days, cells were processed cycle or immunofluorescence protocols. according to the qPCR, β-Gal staining, apoptosis, cell cycle or immunofluorescence protocols.
(In general: In qPCR the cycle at which signal appears reflects the starting amount.)
As to `C=C1CC[C@@H]2[C@](C)(CO)[C@H](O)CC[C@@]2(C)[C@@H]1C/C=C1/C(=O)OC[C@H]1O` [Andrographolide], the HAS2 expression entry was “-”.
For `C=C[C@@H]1C2=CCOC(=O)C2=CO[C@H]1O[C@@H]1O[C@H](CO)[C@@H](O)[C@H](O)[C@H]1O` [Gentiopicrin], the HAS2 expression entry is “-”.
Same read-out and setting: the same measure for `C=C[C@](C)(O)CC[C@@H]1[C@@]2(C)CCCC(C)(C)[C@@H]2CC[C@@]1(C)O` [Sclareol]: “-”.

Another data set relates to H3K9ac (the target of SIRT1, SIRT2 and SIRT6). Description: Sirtuin activity assay in HDF: H3K9ac levels (Western blot). For SIRT1,2,6 H3K9ac: key: ↑: increase; ↓: decrease; hyphens that indicate no effect (-). The format is cell-based, human. The note with it: HDF treated 24h. On the procedure: (§8) Figure 1 (A) Schematic representation of the compound testing for sirtuin activity evaluation in HDF. Cells were treated with or without the compounds for 24h and harvested for analysis. […] (C) Western Blot analysis and (D) quantification of H4K16ac and H3K9ac levels in cells treated with Resveratrol or Shikimic acid at the indicated concentrations. H4K16 and H3K9 levels were normalized to H4 and H3 levels respectively. Student T-test, *p<0.05, **p<0.01, ***p<0.001.
(§9) HDFs were plated in 100x20 mm2 cell culture plates and after 24h, fresh cell culture medium containing the compounds was added. After 24h, cells were detached with cell scrapers, harvested, and processed for qPCR or western blot.
(§10) Protein levels were analyzed as previously described. Cells were directly lysed in 1x Laemmli Buffer (Bio-Rad, USA), incubated at 95° C and centrifuged. Supernatant was subjected to SDS-polyacrylamide gel electrophoresis, and successive steps were performed as described. The list of antibodies used is included in Supplementary Table 2.
A general note: A western blot detects proteins with antibodies after separation by electrophoresis.
With `O=Cc1ccc(O)c(O)c1` [3,4-dihydroxybenzaldehyde], the “effect on H3K9ac levels” value is on record as “induced a similar effect on both targets”.
Still for that read-out and setting: the entry for `C=C1CC[C@@H]2[C@](C)(CO)[C@H](O)CC[C@@]2(C)[C@@H]1C/C=C1/C(=O)OC[C@H]1O` [Andrographolide] is “induced a similar effect on both targets”.

The data set is the same for the next values; noted with them: HDF treated 24h, Figure 1B.
Take `O=C(O)CCCC[C@@H]1CCSS1` (racemic) [Lipoic acid]: the “SIRT1,2,6 H3K9ac” value is recorded as “-”.
`NCCC(=O)N[C@@H](Cc1cnc[nH]1)C(=O)O` [Carnosine]: the “SIRT1,2,6 H3K9ac” value is reported as “-”.
For `COc1cc(/C=C/C(=O)O)ccc1O` [Ferulic acid], the “SIRT1,2,6 H3K9ac” value is listed as “-”.
The same measure, in the same setting: the same measure for `C=C[C@@H]1C2=CCOC(=O)C2=CO[C@H]1O[C@@H]1O[C@H](CO)[C@@H](O)[C@H](O)[C@H]1O` [Gentiopicrin]: “-”.
The same measure, in the same setting: the same measure for `COc1cc(-c2coc3cc4c(c(OC)c3c2=O)OCO4)cc(OC)c1OC` [Irisflorentin]: “-”; for `C=C[C@](C)(O)CC[C@@H]1[C@@]2(C)CCCC(C)(C)[C@@H]2CC[C@@]1(C)O` [Sclareol]: “-”.

For the next data set, the system named is H4K16ac (the target of SIRT1 and SIRT2). Description: Sirtuin activity assay in HDF: H4K16ac levels (Western blot). For SIRT1,2 H4K16ac: key: ↑: increase; ↓: decrease; hyphens that indicate no effect (-). The format is cell-based, human. The note with it: HDF treated 24h. As to the method: as §8, §9, §10
On to `O=Cc1ccc(O)c(O)c1` [3,4-dihydroxybenzaldehyde], for which the “effect on H4K16ac levels” value was “induced a similar effect on both targets”.
The same measure, in the same setting: the entry for `C=C1CC[C@@H]2[C@](C)(CO)[C@H](O)CC[C@@]2(C)[C@@H]1C/C=C1/C(=O)OC[C@H]1O` [Andrographolide] is “induced a similar effect on both targets”.

The same data set, now with this note: HDF treated 24h, Figure 1B.
Consider `O=C(O)CCCC[C@@H]1CCSS1` (racemic) [Lipoic acid], for which the “SIRT1,2 H4K16ac” value is “-”.
Same read-out and setting: the same measure for `NCCC(=O)N[C@@H](Cc1cnc[nH]1)C(=O)O` [Carnosine]: “-”; for `COc1cc(/C=C/C(=O)O)ccc1O` [Ferulic acid]: “-”; for `COc1cc(-c2coc3cc4c(c(OC)c3c2=O)OCO4)cc(OC)c1OC` [Irisflorentin]: “-”.

The subject of another data set is UVB-irradiated human dermal fibroblasts (HDFs). Description: UVB-induced senescence assay: SA-β-Gal staining. For β-Gal: key: ↑: increase; ↓: decrease; hyphens that indicate no effect (-). It counts as cell-based. The note with it: HDF, 2 cycles of UVB, compound day 1 to 7, Figure 2B. As to the method:
as §2, §3, §1, §4, §5, §6, §7
As to `O=C(O)CCCC[C@@H]1CCSS1` (racemic) [Lipoic acid], the β-Gal entry is “-”.
Consider `C=C1CC[C@@H]2[C@](C)(CO)[C@H](O)CC[C@@]2(C)[C@@H]1C/C=C1/C(=O)OC[C@H]1O` [Andrographolide], for which the β-Gal result is given as “-”.
As to `NCCC(=O)N[C@@H](Cc1cnc[nH]1)C(=O)O` [Carnosine], the β-Gal entry is “-”.
The same measure, in the same setting: the same measure for `COc1cc(/C=C/C(=O)O)ccc1O` [Ferulic acid]: “-”; for `C=C[C@@H]1C2=CCOC(=O)C2=CO[C@H]1O[C@@H]1O[C@H](CO)[C@@H](O)[C@H](O)[C@H]1O` [Gentiopicrin]: “-”.
The same measure, in the same setting: the entry for `COc1cc(-c2coc3cc4c(c(OC)c3c2=O)OCO4)cc(OC)c1OC` [Irisflorentin] is “-”.
Still for that read-out and setting: the same measure for `C=C[C@](C)(O)CC[C@@H]1[C@@]2(C)CCCC(C)(C)[C@@H]2CC[C@@]1(C)O` [Sclareol]: “-”.

The same data set, now with this note: UVB-irradiated HDF.
Consider `O=C(O)CCCC[C@@H]1CCSS1` (racemic) [Lipoic acid], for which the “SA-β-Gal accumulation/staining” value is “did not change the level of SA-β-Gal staining”.
As to `NCCC(=O)N[C@@H](Cc1cnc[nH]1)C(=O)O` [Carnosine], the “SA-β-Gal accumulation/staining” value is recorded as “did not change the level of SA-β-Gal staining”.
As to `COc1cc(/C=C/C(=O)O)ccc1O` [Ferulic acid], the “SA-β-Gal accumulation/staining” value was “did not change the level of SA-β-Gal staining”.

The same data set, now with this note: UVB-irradiated HDF, SA-β-Gal and HAS2 markers.
For the compound `O=Cc1ccc(O)c(O)c1` [3,4-dihydroxybenzaldehyde], the “prevention of UV-induced cellular senescence” value is “did not prevent cellular senescence”.
The same measure, in the same setting: the same measure for `C=C1CC[C@@H]2[C@](C)(CO)[C@H](O)CC[C@@]2(C)[C@@H]1C/C=C1/C(=O)OC[C@H]1O` [Andrographolide]: “did not prevent cellular senescence”.
